Assay results reported in BindingDB's records for doi:10.1016/s0960-894x(98)00722-7 (Institut De Chimie Organique De L'Universit&#233, 1999).

Assay: Inhibitory activity against rice Alpha-galactosidase

IC50: 805 µM
Structure (SMILES): OCC1=NO[C@H]2[C@H](O)C(O)O[C@@H]12 (stereo partly drawn) [(3aS,6S,6aS)-3-Hydroxymethyl-3a,5,6,6a-tetrahydro-furo[2,3-d]isoxazole-5,6-diol]
